# From patent publication US20120252852A1 (SANOFI, priority 2011, published 2012)
# Tests used:
# [1] = Level of impurities in dependency on pH and repeated autoclaving (1 mg/mL Otamixaban, citrate composition of Example 5, HPLC); format: physicochemical
# Protocol: The appropriate pH value was adjusted by using sodium hydroxide solution (1 M sodium hydroxide) or diluted hydrochloric acid (1 M hydrochloric acid). […] [table] […] The mobile phase was filtered through a 1.5 μm filter. Typically, add 500 mL of mobile phase A to 500 mL of acetonitrile. Mix and degas. [table] [table]
# [2] = tested on: thrombosis; conditions: rodent, canine and porcine models; cited from earlier work
# [3] = Level of impurities in dependency on pH and storage time (1 mg/mL, autoclaved one time, stored at 40° C. and 75% RH, HPLC); format: physicochemical
# Protocol: The appropriate pH value was adjusted by using sodium hydroxide solution (1 M sodium hydroxide) or diluted hydrochloric acid (1 M hydrochloric acid). The prepared vials were autoclaved one time and were stored at 40° C. and 75% RH (relative humidity).
# [4] = repeated autoclaving, pH 2.5 to 4.7
smiles,measurement,setting,value
"COC(=O)[C@H](Cc1cccc(C(=N)N)c1)[C@@H](C)NC(=O)c1ccc(-c2cc[n+]([O-])cc2)cc1 (mixture of isomers) [Otamixaban, Methyl (2R,3R)-2-{3-[amino(imino)methyl]benzyl}-3-{[4-(1-oxidopyridin-4-yl)benzoyl]amino}butanoate]",Increase of Formula III (carbamoyl-benzyl butyric acid methyl ester),"[1]; pH 4.0, 0 autoclaving",0.39%
same,Increase of Formula III (carbamoyl-benzyl butyric acid methyl ester),"[1]; pH 4.0, 1 autoclaving",0.95%
same,Increase of Formula III (carbamoyl-benzyl butyric acid methyl ester),"[1]; pH 4.0, 2 autoclaving",1.48%
same,Increase of Formula III (carbamoyl-benzyl butyric acid methyl ester),"[1]; pH 4.0, 3 autoclaving",2.02%
same,Increase of Formula III (carbamoyl-benzyl butyric acid methyl ester),"[1]; pH 4.2, 0 autoclaving",0.39%
same,Increase of Formula III (carbamoyl-benzyl butyric acid methyl ester),"[1]; pH 4.2, 1 autoclaving",1.08%
same,Increase of Formula III (carbamoyl-benzyl butyric acid methyl ester),"[1]; pH 4.2, 2 autoclaving",1.75%
same,Increase of Formula III (carbamoyl-benzyl butyric acid methyl ester),"[1]; pH 4.2, 3 autoclaving",2.42%
same,Increase of Formula III (carbamoyl-benzyl butyric acid methyl ester),"[1]; pH 4.5, 0 autoclaving",0.39%
same,Increase of Formula III (carbamoyl-benzyl butyric acid methyl ester),"[1]; pH 4.5, 1 autoclaving",1.40%
same,Increase of Formula III (carbamoyl-benzyl butyric acid methyl ester),"[1]; pH 4.5, 2 autoclaving",2.37%
same,Increase of Formula III (carbamoyl-benzyl butyric acid methyl ester),"[1]; pH 4.5, 3 autoclaving",3.36%
same,Increase of Formula III (carbamoyl-benzyl butyric acid methyl ester),"[1]; pH 4.7, 0 autoclaving",0.39%
same,Increase of Formula III (carbamoyl-benzyl butyric acid methyl ester),"[1]; pH 4.7, 1 autoclaving",1.84%
same,Increase of Formula III (carbamoyl-benzyl butyric acid methyl ester),"[1]; pH 4.7, 2 autoclaving",3.20%
same,Increase of Formula III (carbamoyl-benzyl butyric acid methyl ester),"[1]; pH 4.7, 3 autoclaving",4.58%
same,Levels of Formula II (carbamimidoyl acid) versus pH,[1]; [4],minimum at pH 4
same,Levels of Formula III (carbamoyl methyl ester) versus pH,[1]; [4],lowest at the lowest pH
same,Efficacy in models of thrombosis,[2],highly efficacious
same,Level of Formula II versus pH over storage time,[3]; 40° C. and 75% RH,increased faster with lower pH
same,Levels of Formula III versus pH over storage time,[3]; 40° C. and 75% RH,parallel at different pH values
same,Increase of Formula II (carbamimidoyl-benzyl butyric acid),"[3]; pH 2.5, storage 0 months",0.33%
same,Increase of Formula II (carbamimidoyl-benzyl butyric acid),"[3]; pH 2.5, storage 1 month",1.47%
same,Increase of Formula II (carbamimidoyl-benzyl butyric acid),"[3]; pH 2.5, storage 3 months",3.73%
same,Increase of Formula II (carbamimidoyl-benzyl butyric acid),"[3]; pH 2.5, storage 6 months",7.10%
same,Increase of Formula II (carbamimidoyl-benzyl butyric acid),"[3]; pH 3.0, storage 0 months",0.18%
same,Increase of Formula II (carbamimidoyl-benzyl butyric acid),"[3]; pH 3.0, storage 1 month",0.58%
same,Increase of Formula II (carbamimidoyl-benzyl butyric acid),"[3]; pH 3.0, storage 3 months",1.39%
same,Increase of Formula II (carbamimidoyl-benzyl butyric acid),"[3]; pH 3.0, storage 6 months",2.61%
same,Increase of Formula II (carbamimidoyl-benzyl butyric acid),"[3]; pH 3.2, storage 0 months",0.15%
same,Increase of Formula III (carbamoyl-benzyl butyric acid methyl ester),"[3]; pH 3.2, storage 0 months",0.76%
same,Increase of Formula II (carbamimidoyl-benzyl butyric acid),"[3]; pH 3.2, storage 1 month",0.41%
same,Increase of Formula III (carbamoyl-benzyl butyric acid methyl ester),"[3]; pH 3.2, storage 1 month",0.85%
same,Increase of Formula II (carbamimidoyl-benzyl butyric acid),"[3]; pH 3.2, storage 3 months",0.93%
same,Increase of Formula III (carbamoyl-benzyl butyric acid methyl ester),"[3]; pH 3.2, storage 3 months",1.00%
same,Increase of Formula II (carbamimidoyl-benzyl butyric acid),"[3]; pH 3.2, storage 6 months",1.74%
same,Increase of Formula III (carbamoyl-benzyl butyric acid methyl ester),"[3]; pH 3.2, storage 6 months",1.24%
same,Increase of Formula II (carbamimidoyl-benzyl butyric acid),"[3]; pH 3.5, storage 0 months",0.12%
same,Increase of Formula II (carbamimidoyl-benzyl butyric acid),"[3]; pH 3.5, storage 1 month",0.27%
same,Increase of Formula II (carbamimidoyl-benzyl butyric acid),"[3]; pH 3.5, storage 3 months",0.55%
same,Increase of Formula II (carbamimidoyl-benzyl butyric acid),"[3]; pH 3.5, storage 6 months",0.99%
same,Increase of Formula II (carbamimidoyl-benzyl butyric acid),"[3]; pH 3.7, storage 0 months",0.11%
same,Increase of Formula II (carbamimidoyl-benzyl butyric acid),"[3]; pH 3.7, storage 1 month",0.22%
same,Increase of Formula II (carbamimidoyl-benzyl butyric acid),"[3]; pH 3.7, storage 3 months",0.42%
same,Increase of Formula II (carbamimidoyl-benzyl butyric acid),"[3]; pH 3.7, storage 6 months",0.72%
same,Increase of Formula II (carbamimidoyl-benzyl butyric acid),"[3]; pH 4.0, storage 0 months",0.12%
same,Increase of Formula II (carbamimidoyl-benzyl butyric acid),"[3]; pH 4.0, storage 1 month",0.18%
same,Increase of Formula II (carbamimidoyl-benzyl butyric acid),"[3]; pH 4.0, storage 3 months",0.32%
same,Increase of Formula II (carbamimidoyl-benzyl butyric acid),"[3]; pH 4.0, storage 6 months",0.52%
same,Increase of Formula II (carbamimidoyl-benzyl butyric acid),"[3]; pH 4.2, storage 0 months",0.13%
same,Increase of Formula II (carbamimidoyl-benzyl butyric acid),"[3]; pH 4.2, storage 1 month",0.18%
same,Increase of Formula II (carbamimidoyl-benzyl butyric acid),"[3]; pH 4.2, storage 3 months",0.27%
same,Increase of Formula II (carbamimidoyl-benzyl butyric acid),"[3]; pH 4.2, storage 6 months",0.43%
same,Increase of Formula II (carbamimidoyl-benzyl butyric acid),"[3]; pH 4.5, storage 0 months",0.15%
same,Increase of Formula II (carbamimidoyl-benzyl butyric acid),"[3]; pH 4.5, storage 1 month",0.20%
same,Increase of Formula II (carbamimidoyl-benzyl butyric acid),"[3]; pH 4.5, storage 3 months",0.30%
same,Increase of Formula II (carbamimidoyl-benzyl butyric acid),"[3]; pH 4.5, storage 6 months",0.44%
same,Increase of Formula II (carbamimidoyl-benzyl butyric acid),"[3]; pH 4.7, storage 0 months",0.20%
same,Increase of Formula II (carbamimidoyl-benzyl butyric acid),"[3]; pH 4.7, storage 1 month",0.25%
same,Increase of Formula II (carbamimidoyl-benzyl butyric acid),"[3]; pH 4.7, storage 3 months",0.36%
same,Increase of Formula II (carbamimidoyl-benzyl butyric acid),"[3]; pH 4.7, storage 6 months",0.52%
